pIC50: −log10 of the molar value.
Target: recombinant human HPK1 (Homo sapiens (Human), UniProt Q92918)
Experiment: HPK1 kinase assay (ADP-Glo)
Assay type: biochemical
Details: 25 μM ATP, MBP substrate
Method in brief: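 Activity was read as ADP formed, detected by ADP-Glo luminescence after the reaction of 5 ng recombinant human HPK1 with MBP and ATP (stocks 0.5 μg/μl and 25 μM) for 40 min at 30 °C. Buffer was Tris pH 7.5 with MgCl2, BSA and DTT, with compound in 0.5% DMSO. IC50 came from inhibition curves.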

Chain of recombinant human HPK1 (Q92918 whole entry): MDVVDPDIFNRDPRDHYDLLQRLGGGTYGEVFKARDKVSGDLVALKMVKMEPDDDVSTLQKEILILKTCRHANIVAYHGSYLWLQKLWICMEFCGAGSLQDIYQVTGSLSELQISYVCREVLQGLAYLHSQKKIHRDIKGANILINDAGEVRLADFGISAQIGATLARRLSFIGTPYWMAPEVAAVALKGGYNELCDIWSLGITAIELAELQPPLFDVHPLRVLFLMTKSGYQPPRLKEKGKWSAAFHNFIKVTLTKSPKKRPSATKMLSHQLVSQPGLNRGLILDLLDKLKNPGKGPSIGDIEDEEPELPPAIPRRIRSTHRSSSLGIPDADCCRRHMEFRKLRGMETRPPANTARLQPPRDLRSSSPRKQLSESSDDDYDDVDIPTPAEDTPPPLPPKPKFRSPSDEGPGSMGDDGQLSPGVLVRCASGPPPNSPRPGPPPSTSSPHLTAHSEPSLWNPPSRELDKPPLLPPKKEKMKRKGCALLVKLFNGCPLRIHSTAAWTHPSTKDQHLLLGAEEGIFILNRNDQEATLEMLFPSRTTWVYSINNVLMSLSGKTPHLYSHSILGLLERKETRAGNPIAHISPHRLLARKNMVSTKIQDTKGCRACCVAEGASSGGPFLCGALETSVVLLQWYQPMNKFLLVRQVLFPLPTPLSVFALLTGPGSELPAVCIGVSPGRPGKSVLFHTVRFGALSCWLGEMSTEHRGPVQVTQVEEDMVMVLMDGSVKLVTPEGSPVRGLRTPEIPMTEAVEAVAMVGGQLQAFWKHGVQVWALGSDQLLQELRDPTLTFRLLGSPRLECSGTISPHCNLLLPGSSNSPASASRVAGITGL

SMILES | pIC50
CSc1ccc(-c2ccc3nc(NC(=O)[C@@H]4C[C@@H]4F)sc3n2)c2cn[nH]c12 [Example 212, (1S,2S)-2-fluoro-N-(5-(7-(methylthio)-1H-indazol-4-yl)thiazolo[5,4-b]pyridin-2-yl)cyclopropane-1-carboxamide] | < 6.00
Cc1c(F)c(OC(F)(F)F)c2[nH]ncc2c1-c1ccc2nc(NC(=O)[C@@H]3C[C@@H]3F)sc2n1 [Example 213, (1S,2S)-2-fluoro-N-(5-(6-fluoro-5-methyl-7-(trifluoromethoxy)-1H-indazol-4-yl)thiazolo[5,4-b]pyridin-2-yl)cyclopropane-1-carboxamide] | < 6.00
CN(C)c1c(F)cc(-c2ccc3nc(NC(=O)[C@@H]4C[C@@H]4F)sc3n2)c2cn[nH]c12 [Example 214, (1S,2S)-N-(5-(7-(dimethylamino)-6-fluoro-1H-indazol-4-yl)thiazolo[5,4-b]pyridin-2-yl)-2-fluorocyclopropane-1-carboxamide] | < 6.00
O=C(Nc1nc2ccc(-c3cc(F)c(OC(F)(F)F)c4[nH]ncc34)nc2s1)[C@@H]1C[C@@H]1F [Example 215, (1S,2S)-2-fluoro-N-(5-(6-fluoro-7-(trifluoromethoxy)-1H-indazol-4-yl)thiazolo[5,4-b]pyridin-2-yl)cyclopropane-1-carboxamide] | < 6.00
CN(C)c1ccc(-c2ccc3nc(NC(=O)[C@@H]4C[C@@H]4F)sc3n2)c2cn[nH]c12 [Example 216, (1S,2S)-N-(5-(7-(dimethylamino)-1H-indazol-4-yl)thiazolo[5,4-b]pyridin-2-yl)-2-fluorocyclopropane-1-carboxamide] | < 6.00
C[S+]([O-])c1c(F)cc2[nH]ncc2c1-c1cc2sc(NC(=O)[C@@H]3C[C@@H]3F)nc2cn1 (stereo partly drawn) [Example 220, (1S,2S)-2-fluoro-N-(6-(6-fluoro-5-(methylsulfinyl)-1H-indazol-4-yl)thiazolo[4,5-c]pyridin-2-yl)cyclopropane-1-carboxamide] | < 6.00
Cc1ccc2[nH]ncc2c1-c1ccc2nc(NC(=O)[C@@H]3C[C@@H]3F)cn2c1 [Example 221, (1S,2S)-2-fluoro-N-(6-(5-methyl-1H-indazol-4-yl)imidazo[1,2-a]pyridin-2-yl)cyclopropane-1-carboxamide] | 6.30 to 7.00
O=C(Nc1cn2cc(-c3cccc4[nH]ncc34)ccc2n1)[C@@H]1C[C@@H]1F [Example 222, (1S,2S)-N-(6-(1H-indazol-4-yl)imidazo[1,2-a]pyridin-2-yl)-2-fluorocyclopropane-1-carboxamide] | 6.00 to 6.30
Nc1ccc2[nH]ncc2c1-c1ccc2nc(NC(=O)C3CC3)cn2c1 [Example 225, N-(6-(5-amino-1H-indazol-4-yl)imidazo[1,2-a]pyridin-2-yl)cyclopropanecarboxamide] | < 6.00
Nc1c(F)cc2[nH]ncc2c1-c1ccc2nc(NC(=O)C3CC3)cn2c1 [Example 227, N-(6-(5-amino-6-fluoro-1H-indazol-4-yl)imidazo[1,2-a]pyridin-2-yl)cyclopropanecarboxamide] | < 6.00
O=C(Nc1cn2cc(-c3c(Br)ccc4[nH]ncc34)ccc2n1)C1CC1 [Example 228, N-(6-(5-bromo-1H-indazol-4-yl)imidazo[1,2-a]pyridin-2-yl)cyclopropanecarboxamide] | < 6.00
CN(C)c1ccc2[nH]ncc2c1-c1ccc2nc(NC(=O)C3CC3)cn2c1 [Example 230, N-(6-(5-(dimethylamino)-1H-indazol-4-yl)imidazo[1,2-a]pyridin-2-yl)cyclopropanecarboxamide] | < 6.00
O=C(Nc1cn2cc(-c3c(Br)c(F)cc4[nH]ncc34)ccc2n1)C1CC1 [Example 231, N-(6-(5-bromo-6-fluoro-1H-indazol-4-yl)imidazo[1,2-a]pyridin-2-yl)cyclopropanecarboxamide] | < 6.00
O=C(Nc1cn2cc(-c3c(CO)ccc4[nH]ncc34)ccc2n1)C1CC1 [Example 233, N-(6-(5-(hydroxymethyl)-1H-indazol-4-yl)imidazo[1,2-a]pyridin-2-yl)cyclopropanecarboxamide] | 6.00 to 6.30
CCc1ccc2[nH]ncc2c1-c1ccc2nc(NC(=O)C3CC3)cn2c1 [Example 234, N-(6-(5-ethyl-1H-indazol-4-yl)imidazo[1,2-a]pyridin-2-yl)cyclopropanecarboxamide] | < 6.00
Nc1c(Cl)cc2[nH]ncc2c1-c1ccc2nc(NC(=O)C3CC3)cn2c1 [Example 240, N-(6-(5-amino-6-chloro-1H-indazol-4-yl)imidazo[1,2-a]pyridin-2-yl)cyclopropanecarboxamide] | 6.00 to 6.30
O=C(Nc1cn2cc(-c3c(C4CC4)c(F)cc4[nH]ncc34)ccc2n1)C1CC1 [Example 241, N-(6-(5-cyclopropyl-6-fluoro-1H-indazol-4-yl)imidazo[1,2-a]pyridin-2-yl)cyclopropanecarboxamide] | < 6.00
O=C(Nc1cn2cc(-c3c(C4CC4)ccc4[nH]ncc34)ccc2n1)C1CC1 [Example 244, N-(6-(5-cyclopropyl-1H-indazol-4-yl)imidazo[1,2-a]pyridin-2-yl)cyclopropanecarboxamide] | 6.30 to 7.00

Results, then the molecule that gave them:

pIC50 | SMILES
> 7.00 | CCc1c(F)c(C(F)(F)F)c2[nH]ncc2c1-c1ccc2nc(NC(=O)[C@@H]3C[C@@H]3F)sc2n1 [Example 210, (1S,2S)-N-(5-(5-ethyl-6-fluoro-7-(trifluoromethyl)-1H-indazol-4-yl)thiazolo[5,4-b]pyridin-2-yl)-2-fluorocyclopropane-1-carboxamide]
> 7.00 | Cc1c(F)c(Cl)c(-c2ccc3nc(NC(=O)[C@@H]4C[C@@H]4F)sc3n2)c2cn[nH]c12 [Example 211, (1S,2S)-N-(5-(5-chloro-6-fluoro-7-methyl-1H-indazol-4-yl)thiazolo[5,4-b]pyridin-2-yl)-2-fluorocyclopropane-1-carboxamide]
> 7.00 | Cc1c(F)c(C(F)F)c2[nH]ncc2c1-c1ccc2nc(NC(=O)[C@@H]3C[C@@H]3F)sc2n1 [Example 217, (1S,2S)-N-(5-(7-(difluoromethyl)-6-fluoro-5-methyl-1H-indazol-4-yl)thiazolo[5,4-b]pyridin-2-yl)-2-fluorocyclopropane-1-carboxamide]
> 7.00 | CCN(C)c1c(F)c(SC)c(-c2ccc3nc(NC(=O)[C@@H]4C[C@@H]4F)sc3n2)c2cn[nH]c12 [Example 218, (1S,2S)-N-(5-(7-(ethyl(methyl)amino)-6-fluoro-5-(methylthio)-1H-indazol-4-yl)thiazolo[5,4-b]pyridin-2-yl)-2-fluorocyclopropane-1-carboxamide]
6.30 to 7.00 | CSc1c(F)cc2[nH]ncc2c1-c1cc2sc(NC(=O)[C@@H]3C[C@@H]3F)nc2cn1 [Example 219, (1S,2S)-2-fluoro-N-(6-(6-fluoro-5-(methylthio)-1H-indazol-4-yl)thiazolo[4,5-c]pyridin-2-yl)cyclopropane-1-carboxamide]
> 7.00 | O=C(Nc1cn2cc(-c3c(Cl)ccc4[nH]ncc34)ccc2n1)C1CC1 [Example 223, N-(6-(5-chloro-1H-indazol-4-yl)imidazo[1,2-a]pyridin-2-yl)cyclopropanecarboxamide]
6.30 to 7.00 | COc1ccc2[nH]ncc2c1-c1ccc2nc(NC(=O)C3CC3)cn2c1 [Example 224, N-(6-(5-methoxy-1H-indazol-4-yl)imidazo[1,2-a]pyridin-2-yl)cyclopropanecarboxamide]
> 7.00 | O=C(Nc1cn2cc(-c3c(C(F)(F)F)ccc4[nH]ncc34)ccc2n1)C1CC1 [Example 226, N-(6-(5-(trifluoromethyl)-1H-indazol-4-yl)imidazo[1,2-a]pyridin-2-yl)cyclopropanecarboxamide]
> 7.00 | CNc1ccc2[nH]ncc2c1-c1ccc2nc(NC(=O)C3CC3)cn2c1 [Example 229, N-(6-(5-(methylamino)-1H-indazol-4-yl)imidazo[1,2-a]pyridin-2-yl)cyclopropanecarboxamide]
> 7.00 | N#Cc1ccc2[nH]ncc2c1-c1ccc2nc(NC(=O)C3CC3)cn2c1 [Example 232, N-(6-(5-cyano-1H-indazol-4-yl)imidazo[1,2-a]pyridin-2-yl)cyclopropanecarboxamide]
> 7.00 | C=Cc1c(F)cc2[nH]ncc2c1-c1ccc2nc(NC(=O)C3CC3)cn2c1 [Example 235, N-(6-(6-fluoro-5-vinyl-1H-indazol-4-yl)imidazo[1,2-a]pyridin-2-yl)cyclopropanecarboxamide]
> 7.00 | O=C(Nc1cn2cc(-c3c(C(F)(F)F)ccc4[nH]ncc34)ccc2n1)[C@@H]1C[C@@H]1F [Example 236, (1S,2S)-2-fluoro-N-(6-(5-(trifluoromethyl)-1H-indazol-4-yl)imidazo[1,2-a]pyridin-2-yl)cyclopropane-1-carboxamide]
> 7.00 | O=C(Nc1cn2cc(-c3c(Cl)ccc4[nH]ncc34)ccc2n1)[C@@H]1C[C@@H]1F [Example 237, (1S,2S)-N-(6-(5-chloro-1H-indazol-4-yl)imidazo[1,2-a]pyridin-2-yl)-2-fluorocyclopropane-1-carboxamide]
> 7.00 | O=C(Nc1cn2cc(-c3c(Br)ccc4[nH]ncc34)ccc2n1)[C@@H]1C[C@@H]1F [Example 238, (1S,2S)-N-(6-(5-bromo-1H-indazol-4-yl)imidazo[1,2-a]pyridin-2-yl)-2-fluorocyclopropane-1-carboxamide]
> 7.00 | CC(=O)c1ccc2[nH]ncc2c1-c1ccc2nc(NC(=O)C3CC3)cn2c1 [Example 239, N-(6-(5-acetyl-1H-indazol-4-yl)imidazo[1,2-a]pyridin-2-yl)cyclopropanecarboxamide]
6.30 to 7.00 | O=C(Nc1cn2cc(-c3c(Cl)c(F)cc4[nH]ncc34)ccc2n1)C1CC1 [Example 242, N-(6-(5-chloro-6-fluoro-1H-indazol-4-yl)imidazo[1,2-a]pyridin-2-yl)cyclopropanecarboxamide]
> 7.00 | O=C(Nc1cn2cc(-c3c(Cl)c(F)cc4[nH]ncc34)ccc2n1)[C@@H]1C[C@@H]1F [Example 243, (1S,2S)-N-(6-(5-chloro-6-fluoro-1H-indazol-4-yl)imidazo[1,2-a]pyridin-2-yl)-2-fluorocyclopropane-1-carboxamide]

From patent US11649255B2, “Indazoles as hematopoietic progenitor kinase 1 (HPK1) inhibitors and methods using same” (1st Biotherapeutics, Inc., priority 2020, dated 2023)
